Test results from US7358236B1 (priority 2002, dated 2008).
Read-outs that look alike come from different tables or passages of the source.

Experiments:
heart tissue = experiment: Histopathology of heart tissue after single dose VTA, and protective effect of propranolol; details: for Heart histopathology with propranolol pretreatment: 2 mg/kg Propranolol Hydrochloride 1 hour prior to CA-4DP 100 mg/kg
tumor blood flow = details: cited from earlier work
[1] = rat, in vivo

Row | Compound | MABP (antihypertensive co-administered with CA-4DP 30 mg/kg i.p., 1 hour after CA-4DP dosing) | Heart Rate (antihypertensive co-administered with CA-4DP 30 mg/kg i.p., 1 hour post CA-4DP dosing) | Heart histopathology with propranolol pretreatment (heart tissue; 6 or 24 hours post-treatment) | Heart histopathology with propranolol pretreatment (heart tissue; 4 days) | Heart Rate (rat, in vivo) | Increase of MABP versus control animals (rat, in vivo, ip, 30 mg/kg) | MABP (rat, in vivo, ip, 30 mg/kg) | Blood flow in vital tissues (heart, kidney, small intestine) (tumor blood flow; 100 mg/kg, rat) | Reduction in tumor blood flow (tumor blood flow; 100 mg/kg, rat) | Mean Arterial Blood Pressure change (tumor blood flow; almost immediately following administration) | MABP stabilized level [1] | Histopathological changes in the heart (heart tissue; CA-4DP 100 mg/kg i.v. single dose, overall) | Histopathological changes in the heart (heart tissue; CA-4DP 100 mg/kg i.v., at 6 hours) | Histopathological changes in the heart (heart tissue; CA-4DP 100 mg/kg i.v., at 24 hours) | Histopathological changes in the heart (heart tissue; CA-4DP 100 mg/kg i.v., at 4 days)
1 | CC(C)NCC(O)COc1cccc2ccccc12 (racemic) [propranolol, 1-[ispropylamino]3-[1-napthyloxy]-2-propanol hydrocholoride] | 80.2 mmHg | 248.5 bpm | no abnormal CA-4DP-related histopathology | cardiac tissue remained healthy |  |  |  |  |  |  |  |  |  |  | 
2 | Combretastatin A-4 Disodium Phosphate Prodrug [CA-4DP] |  |  |  |  | 265.6 bpm | 72% | 107.9 mmHg | maintained at normal levels | 100 fold | substantial but transient increase | 110 mmHg | necrosis and degeneration of cardiac cells in some localized areas | some blood vessels in the heart tissue were observed dilated | Inflammation cells infiltrated the heart tissue | loss of striation, fragmentation, a manifestation of necrosis and degeneration
